Key:
[1] = Selectivity index, ratio of CC50 for calf heart cells to IC50 for BVDV VK-1 infected in calf heart cells; format: toxicity, cell-based; settings: cattle, read-out: Ratio CC50/IC50
[2] = Inhibition of p7 ion channel in BVDV VK-1 infected in calf heart cells assessed as reduction in viral growth by colorimetric method; format: cell-based, Bovine viral diarrhea virus 1; settings: Bovine viral diarrhea virus isolates and strains
[3] = Cytotoxicity against calf heart cells assessed as reduction in cell viability by colorimetric method; format: cell-based, Bos taurus; settings: cattle

## CC(=O)NC(C)C12CC3CC(CC(C(=O)O)(C3)C1)C2 (centres undefined)
[1]
  selectivity ratio: > 13.1
[2]
  IC50: 28.9 µM
[3]
  CC50: > 377 µM

## C[C@H](O)[C@H](N)C12CC3CC(CC(C3)C1)C2
[1]
  selectivity ratio: > 4
[2]
  IC50: 103 µM
[3]
  CC50: > 407 µM

## CN(C)c1cc[n+](C23CC4CC(CC(C4)C2)C3)cc1
[1]
  selectivity ratio: 8.1
[2]
  IC50: 24.4 µM
[3]
  CC50: 199 µM

## O=C1CCC(C23CC4CC(CC(C4)C2)C3)=NN1c1ccccc1
[1]
  selectivity ratio: > 450
[2]
  IC50: < 0.52 µM
[3]
  CC50: 235 µM

## CSc1ncn(C2(c3ccccc3O)C3CC4CC(C3)CC2C4)n1 (centres undefined)
[1]
  selectivity ratio: 5.2
[2]
  IC50: 22.9 µM
[3]
  CC50: 119 µM

## O=C(O)CC12CC3CC(O)(C1)CC(CC(=O)O)(C3)C2
[1]
  selectivity ratio: > 3.2
[2]
  IC50: 116 µM
[3]
  CC50: > 373 µM

## CC1(c2ccccc2)CCCN(CCC23CC4CC(CC(C4)C2)C3)C1 (centres undefined)
[1]
  selectivity ratio: 28.7
[2]
  IC50: 3.02 µM
[3]
  CC50: 86.7 µM

## O=S1(=O)OC23CC4CC(CC(C4)C2)C[C@H]3[C@@H]1CN1CCCCC1
[1]
  selectivity ratio: > 1.8
[2]
  IC50: 163 µM
[3]
  CC50: > 295 µM

## c1ccc2[nH]cc(C34CC5CC(CC(C5)C3)C4)cc[nH]c2c1
[1]
  selectivity ratio: 6.3
[2]
  IC50: 20.3 µM
[3]
  CC50: 128 µM

## CC12CC3(N)CC(CC(=O)O)(C1)CC(CC(=O)O)(C2)C3
[1]
  selectivity ratio: > 2.7
[2]
  IC50: 118 µM
[3]
  CC50: > 315 µM

## C[C@@H]1N[C@H]1C12CC3CC(CC(C3)C1)C2
[1]
  selectivity ratio: 1.4
[2]
  IC50: 76.7 µM
[3]
  CC50: 105 µM

## O=c1ccn(C23CC4CC(CC(C4)C2)C3)cc1
[1]
  selectivity ratio: 4.5
[2]
  IC50: 35.3 µM
[3]
  CC50: 158 µM

## c1ccc2nc3c(nc2c1)C1CC2CC(C1)CC3C2
[1]
  selectivity ratio: > 50.8
[2]
  IC50: 7.87 µM
[3]
  CC50: > 400 µM

## O=C(C[n+]1cccc2ccccc21)C12CC3CC(CC(C3)C1)C2
[1]
  selectivity ratio: 8.7
[2]
  IC50: 15.2 µM
[3]
  CC50: 133 µM

## Cc1cccc[n+]1CCC12CC3CC(CC(C3)C1)C2
[1]
  selectivity ratio: 32
[2]
  IC50: 9.3 µM
[3]
  CC50: 297 µM

## CCC1CC2CC3CC(C2)CC1(O)C3 (centres undefined)
[1]
  selectivity ratio: 95.2
[2]
  IC50: 4.24 µM
[3]
  CC50: 403 µM

## Oc1noc2c1C1CC3CC(CC2C3)C1
[1]
  selectivity ratio: > 82
[2]
  IC50: 5.94 µM
[3]
  CC50: > 487 µM

## CC(=O)NCC12CC3CC(C1)CC(CC(=O)O)(C3)C2
[1]
  selectivity ratio: > 2.1
[2]
  IC50: 181 µM
[3]
  CC50: > 377 µM

## CC1(c2ccccc2)CCN(CCC23CC4CC(CC(C4)C2)C3)CC1
[1]
  selectivity ratio: 32.1
[2]
  IC50: 2.82 µM
[3]
  CC50: 90.7 µM

## Oc1ccccc1C1(n2cncn2)C2CC3CC(C2)CC1C3 (centres undefined)
[1]
  selectivity ratio: > 56.5
[2]
  IC50: 5.99 µM
[3]
  CC50: > 339 µM

## O/N=C1\C(=N\O)C2CC3CC(CC1C3)C2
[1]
  selectivity ratio: 142
[2]
  IC50: 3.38 µM
[3]
  CC50: 480 µM

## O=c1cc[nH]cc1C12CC3CC(CC(C3)C1)C2
[1]
  selectivity ratio: > 33.9
[2]
  IC50: 12.9 µM
[3]
  CC50: > 436 µM

## CC1=CCCN(CC(O)C23CC4CC(CC(C4)C2)C3)C1 (centres undefined)
[1]
  selectivity ratio: 7.5
[2]
  IC50: 25.2 µM
[3]
  CC50: 190 µM

## O=C(C[n+]1ccccc1)C12CC3CC(CC(C3)C1)C2
[1]
  selectivity ratio: > 3.9
[2]
  IC50: 75.9 µM
[3]
  CC50: > 297 µM

## O=C(O)CC12CC3(O)CC(CC(=O)O)(C1)CC(C(=O)O)(C3)C2
[1]
  selectivity ratio: > 1.1
[2]
  IC50: 282 µM
[3]
  CC50: > 320 µM

## O=c1ccc(C23CC4CC(CC(C4)C2)C3)n[nH]1
[1]
  selectivity ratio: > 21.8
[2]
  IC50: 20 µM
[3]
  CC50: > 434 µM

## c1ccc2c[n+](CCC34CC5CC(CC(C5)C3)C4)ccc2c1
[1]
  selectivity ratio: 1.5
[2]
  IC50: 56.6 µM
[3]
  CC50: 83 µM

## c1ccc2c(c1)Oc1ncnn1C21C2CC3CC(C2)CC1C3 (centres undefined)
[1]
  selectivity ratio: > 54.7
[2]
  IC50: 6.23 µM
[3]
  CC50: > 341 µM

## O=c1[nH]cc(C23CC4CC(CC(C4)C2)C3)cc1C12CC3CC(CC(C3)C1)C2
[1]
  selectivity ratio: > 107
[2]
  IC50: 2.56 µM
[3]
  CC50: > 275 µM

## c1cc(OC23CC4CC(CC(C4)C2)C3)ccn1
[1]
  selectivity ratio: 7.8
[2]
  IC50: 37.4 µM
[3]
  CC50: 290 µM

## O=C(NCc1ccccc1)C1C(=O)C2CC3CC(C2)CC1C3 (centres undefined)
[1]
  selectivity ratio: > 5.1
[2]
  IC50: 66.6 µM
[3]
  CC50: > 336 µM

## O/N=C1/CC2CC3CC(C2)CC1C3
[1]
  selectivity ratio: 20.6
[2]
  IC50: 7.21 µM
[3]
  CC50: 148 µM

## O=S1(=O)OC23CC4CC(CC(C4)C2)C[C@H]3[C@@H]1CN1CCOCC1
[1]
  selectivity ratio: > 4.7
[2]
  IC50: 62.1 µM
[3]
  CC50: > 293 µM

## N#CC(C#N)=C(/C=C/N1CCOCC1)C12CC3CC(CC(C3)C1)C2
[1]
  selectivity ratio: > 3.6
[2]
  IC50: 86.4 µM
[3]
  CC50: > 309 µM

## O=S1(=O)OC23CC4CC(CC(C4)C2)C[C@H]3[C@@H]1CNCc1ccccc1
[1]
  selectivity ratio: 1.7
[2]
  IC50: 56.5 µM
[3]
  CC50: 96 µM

## NCC12CC3CC(C1)CC(CC(=O)O)(C3)C2
[1]
  selectivity ratio: > 1
[2]
  IC50: 382 µM
[3]
  CC50: > 385 µM

## Cc1cccc[n+]1CC(=O)C12CC3CC(CC(C3)C1)C2
[1]
  selectivity ratio: > 3.6
[2]
  IC50: 78.8 µM
[3]
  CC50: > 285 µM

## OC(CN1CCCc2ccccc21)C12CC3CC(CC(C3)C1)C2 (centres undefined)
[1]
  selectivity ratio: > 1.5
[2]
  IC50: 213 µM
[3]
  CC50: > 321 µM

## O=c1[nH][nH]c2c1C1CC3CC(CC2C3)C1
[1]
  selectivity ratio: > 12.2
[2]
  IC50: 39.7 µM
[3]
  CC50: > 485 µM

## CC1=NC(C)(C23CC4CC(CC(C4)C2)C3)CO1 (centres undefined)
[1]
  selectivity ratio: 5
[2]
  IC50: 33.4 µM
[3]
  CC50: 168 µM

## CC(O)(CNC(=O)C(F)(F)F)C12CC3CC(CC(C3)C1)C2 (centres undefined)
[1]
  selectivity ratio: 3.4
[2]
  IC50: 75.4 µM
[3]
  CC50: 259 µM

## CN(C)C1=NC2(c3ccccc3O1)C1CC3CC(C1)CC2C3 (centres undefined)
[1]
  selectivity ratio: 1
[2]
  IC50: 70.9 µM
[3]
  CC50: 72.1 µM

## CC(=C(C#N)C#N)C12CC3CC(CC(C3)C1)C2
[1]
  selectivity ratio: 4.1
[2]
  IC50: 25.9 µM
[3]
  CC50: 106 µM

## C1CN[C@H]2C3CC4CC(CC(C4)[C@H]2N1)C3
[1]
  selectivity ratio: > 211
[2]
  IC50: 1.69 µM
[3]
  CC50: > 358 µM

## C1C2CC3CC1CC(C2)c1nc2c(nc13)C1CC3CC(C1)CC2C3
[1]
  selectivity ratio: > 3.1
[2]
  IC50: 102 µM
[3]
  CC50: > 312 µM

## O=C1/C(=N/O)C2CC3CC(CC1C3)C2
[1]
  selectivity ratio: > 2.9
[2]
  IC50: 177 µM
[3]
  CC50: > 518 µM

## O=C(O)C(Br)C12CC3CC(CC(O)(C3)C1)C2 (centres undefined)
[1]
  selectivity ratio: > 1.8
[2]
  IC50: 193 µM
[3]
  CC50: > 346 µM

## C=C(COc1ccccc1C(=O)OCC)C12CC3CC(CC(C3)C1)C2
[1]
  selectivity ratio: 7.8
[2]
  IC50: 4.57 µM
[3]
  CC50: 35.8 µM

## CCN(CC)C[C@H]1O[C@@H]1C12CC3CC(CC(C3)C1)C2 (relative stereo)
[1]
  selectivity ratio: 2.3
[2]
  IC50: 39.5 µM
[3]
  CC50: 90.4 µM

## O=C([C@@H]([C@H](C[N+](=O)[O-])c1ccccc1)S(=O)(=O)c1ccccc1)C12CC3CC(CC(C3)C1)C2 (relative stereo)
[1]
  selectivity ratio: > 114
[2]
  IC50: 1.89 µM
[3]
  CC50: > 215 µM

## C1CN(C[C@H]2O[C@@H]2C23CC4CC(CC(C4)C2)C3)CCO1 (relative stereo)
[1]
  selectivity ratio: 1.7
[2]
  IC50: 164 µM
[3]
  CC50: 271 µM

## CCN(CC)C[C@H](Cl)[C@H](O)C12CC3CC(CC(C3)C1)C2 (relative stereo)
[1]
  selectivity ratio: 20.5
[2]
  IC50: 13.4 µM
[3]
  CC50: 274 µM

## COP(=O)(OC)[C@@H](C(=O)C12CC3CC(CC(C3)C1)C2)[C@H](C[N+](=O)[O-])c1ccccc1 (relative stereo)
[1]
  selectivity ratio: > 21.7
[2]
  IC50: 10.6 µM
[3]
  CC50: > 230 µM

Source: ChEMBL document CHEMBL4270648, “Molecular design, synthesis and biological evaluation of cage compound-based inhibitors of hepatitis C virus p7 ion channels” (Eur J Med Chem, 2018)
